Measurements as given in ChEMBL document CHEMBL3751836, “Novel peptidomimetics related to gonadotropin-releasing hormone (GnRH)” (Medchemcomm, 2015).
The source made the active and inactive calls. No cut-off for these calls is given here.

Legend:
[1] = target: T1, Gonadotropin-releasing hormone receptor (Homo sapiens) (UniProt P30968); test: (§1) Displacement of [125I]-DTyr6-His5-GnRH from human type 1 GnRH receptor expressed in HEK293 cell membranes after 16 to 19 hrs by gamma counting analysis
T1 sequence (whole entry): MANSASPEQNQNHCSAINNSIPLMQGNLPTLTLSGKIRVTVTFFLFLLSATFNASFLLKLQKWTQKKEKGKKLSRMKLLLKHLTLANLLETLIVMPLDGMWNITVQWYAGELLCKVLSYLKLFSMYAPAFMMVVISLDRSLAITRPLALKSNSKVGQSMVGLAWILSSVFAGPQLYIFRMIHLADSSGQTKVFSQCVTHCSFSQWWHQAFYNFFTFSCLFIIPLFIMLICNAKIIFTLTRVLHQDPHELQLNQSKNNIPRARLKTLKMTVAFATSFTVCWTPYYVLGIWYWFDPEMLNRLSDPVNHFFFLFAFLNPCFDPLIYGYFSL

[2] = target: T2, Gonadotropin-releasing hormone receptor (Homo sapiens, UniProt P30968); test: as §1
T2 sequence (P30968 whole entry): T1 sequence (whole entry)

HEK293 = test: Antiproliferative activity against HEK293 cells expressing human type 1 GnRH receptor at 1 uM after 4 days by MTT assay; assay type: functional, cell-based
[3] = Metabolic stability in rat plasma at 100 uM after 4 hrs by HPLC/mass spectrometric analysis relative to GnRH2; assay type: ADME, cell-free; conditions: read-out: Stability
[4] = Metabolic stability in rat plasma at 100 uM after 4 hrs by HPLC/mass spectrometric analysis relative to GnRH1; assay type: ADME, cell-free; conditions: read-out: Stability
[5] = Metabolic stability in rat plasma assessed as half life at 100 uM by HPLC/mass spectrometric analysis; assay type: ADME, cell-free

Row | Compound | Activity [1] | IC50 [2] | Activity (HEK293) | remaining at 4 h, 100 µM [3] | remaining at 4 h, 100 µM [4] | half-life at 100 µM [5]
1 | CC(C)C[C@H](NC(=O)CN1CN(c2ccccc2)C2(CCN(C(=O)[C@H](Cc3c[nH]c4ccccc34)NC(=O)[C@H](Cc3c[nH]cn3)NC(=O)[C@@H]3CCC(=O)N3)CC2)C1=O)C(=O)N[C@@H](CCCNC(=N)N)C(=O)N1CCC[C@H]1C(=O)NCC(N)=O | Dose-dependent effect | 724 nM | – | – | – | –
2 | NC(=O)CNC(=O)[C@H]1CCCN1C(=O)[C@H](Cc1ccc(O)cc1)NC(=O)[C@H](Cc1c[nH]c2ccccc12)NC(=O)C1(NC(=O)[C@@H](Cc2cnc[nH]2)NC(=O)[C@@H](CO)NC(=O)[C@@H](Cc2c[nH]c3ccccc23)NC(=O)[C@@H](Cc2c[nH]cn2)NC(=O)[C@H]2CCC(=O)N2)CCC1 | Dose-dependent effect | 191 nM | – | – | – | –
3 | NC(=O)CNC(=O)[C@H]1CCCN1C(=O)[C@H](Cc1ccc(O)cc1)NC(=O)[C@H](Cc1c[nH]c2ccccc12)NC(=O)C1(NC(=O)[C@@H](Cc2cnc[nH]2)NC(=O)[C@@H](CO)NC(=O)[C@@H](Cc2c[nH]c3ccccc23)NC(=O)[C@@H](Cc2c[nH]cn2)NC(=O)[C@H]2CCC(=O)N2)CCCC1 | Dose-dependent effect | 282 nM | – | – | – | –
4 | NC(=O)CNC(=O)[C@@H]1CCCN1C(=O)[C@@H](Cc1ccc(O)cc1)NC(=O)[C@@H](Cc1c[nH]c2ccccc12)NC(=O)C1(NC(=O)[C@H](Cc2cnc[nH]2)NC(=O)[C@H](CO)NC(=O)[C@H](Cc2c[nH]c3ccccc23)NC(=O)[C@H](Cc2c[nH]cn2)NC(=O)[C@@H]2CCC(=O)N2)CCCCC1 | Dose-dependent effect | 407 nM | Active | 15% | – | –
5 | CC(C)C[C@H](NC(=O)C1(NC(=O)[C@H](Cc2ccc(O)cc2)NC(=O)[C@H](CO)NC(=O)[C@H](Cc2c[nH]c3ccccc23)NC(=O)[C@H](Cc2c[nH]cn2)NC(=O)[C@@H]2CCC(=O)N2)CCCCC1)C(=O)N[C@@H](CCCNC(=N)N)C(=O)N1CCC[C@H]1C(=O)NCC(N)=O | Dose-dependent effect | 550 nM | – | – | 15% | 3.96 h
6 | CCNC(=O)[C@@H]1CCCN1C(=O)[C@H](CCCNC(=N)N)NC(=O)[C@H](CC(C)C)NC(=O)[C@@H](CC(C)C)NC(=O)[C@H](Cc1ccc(O)cc1)NC(=O)[C@H](CO)NC(=O)[C@H](Cc1c[nH]c2ccccc12)NC(=O)[C@H](Cc1c[nH]cn1)NC(=O)[C@@H]1CCC(=O)N1 | – | – | Active | – | – | –
7 | CC(C)C[C@H](NC(=O)C1(NC(=O)[C@H](Cc2ccc(O)cc2)NC(=O)[C@H](CO)NC(=O)[C@H](Cc2c[nH]c3ccccc23)NC(=O)[C@H](Cc2c[nH]cn2)NC(=O)[C@@H]2CCC(=O)N2)CCCC1)C(=O)N[C@@H](CCCNC(=N)N)C(=O)N1CCC[C@H]1C(=O)NCC(N)=O | Dose-dependent effect | 589 nM | – | – | – | –
8 | CC(C)C[C@H](NC(=O)CNC(=O)[C@H](Cc1ccc(O)cc1)NC(=O)[C@H](CO)NC(=O)[C@H](Cc1c[nH]c2ccccc12)NC(=O)[C@H](Cc1cnc[nH]1)NC(=O)[C@@H]1CCC(=O)N1)C(=O)N[C@@H](CCCNC(=N)N)C(=O)N1CCC[C@H]1C(=O)NCC(N)=O [GONADORELIN] | – | – | – | – | – | 2.63 h
